Data on 1 molecule can be found in patent publication US20040029758A1 (priority 2000, published 2004).

This assay deals with Legionella.

Take `OCl` [sodium hypochlorite]: the “Legionella test of bath water” value is reported as “detected”. The “Count of the bacteria of the genus Legionella in bath water” value (start 300 CFU/100 ml, free residual chlorine max 2 mg/l for 2 hours, then 3 days at sodium hypochlorite 0.4 mg/l, 2000 bathers per day) is reported as 1300 CFU/100 ml.
